This note sets out measurements from patent US9133104B2 (Chroma Therapeutics Ltd., priority 2005, dated 2015).

Molecules are shown by their SMILES. pIC50: −log10 of the molar value.

What is called pIC50 is −log10 of the IC50, conventionally taken in molar units. A lower pIC50 goes with a high IC50.

Assay [1] addresses T1, histone deacetylase activity (HeLa nuclear extract).
T1 construct: Histone deacetylase activity from crude nuclear extract derived from HeLa cells was used for screening
Kind of assay: HDAC fluorescent activity assay (Biomol Fluor de Lys), HeLa nuclear extract. The assay is classed as biochemical. The following applies: Fluor de Lys substrate, IC50 range. Summed up: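 Crude HeLa nuclear extract (20 mM Hepes, 100 mM KCl, 0.2 mM EDTA, 0.5 mM DTT, 0.2 mM PMSF, 20% glycerol) incubated with acetyl-lysine Fluor de Lys substrate ± inhibitor; developer generates fluorophore. Background-subtracted % of vehicle control; IC50 from eight-point variable-slope sigmoidal fit.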

In the next assay the test system is Hela cancer cell line. Kind of assay: Cell inhibition assay (SRB cell viability), Hela. The assay is classed as cell-based. The following applies: Homo sapiens, HeLa, 72 h, Hela cells, IC50 range. Summed up:
(§1)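 Log-phase Hela, U937 and HUT cells were seeded at 1000 cells/well, grown 24 h, then exposed to compound (20 uM final) for 72 h. Viability was read by sulphorhodamine B staining and expressed as % inhibition relative to DMSO control. IC50 values came from sigmoidal variable-slope fits of eight concentrations.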

The test system of another assay is U937 cancer cell line. Kind of assay: Cell inhibition assay (SRB cell viability), U937. The following applies: Homo sapiens, U-937, U937 cells, 72 h, IC50 range. The assay is classed as cell-based. An outline of the steps: as §1
The next assay has as its system HUT cancer cell line. Kind of assay: Cell inhibition assay (SRB cell viability), HUT. To be noted: HUT cells, 72 h, IC50 range. The assay is classed as cell-based. An outline of the steps:
as §1

For the compound `O=C(CCCCCCC(=O)Nc1cccc(OCCN[C@@H](Cc2ccccc2)C(=O)OC2CCCC2)c1)NO` [Compound 73, (S)-2-{2-[3-(7-Hydroxycarbamoyl-heptanoylamino)-phenoxy]-ethylamino}-3-phenyl-propionic acid cyclopentyl ester], the pIC50 is above 7.00 in assay [1], 5.48 to 6.48 with Hela cancer cell line, above 6.48 with U937 cancer cell line and 5.48 to 6.48 in the assay on HUT cancer cell line.
Regarding `O=C(CCCCCCC(=O)Nc1cccc(OCCCN[C@@H](Cc2ccccc2)C(=O)OC2CCCC2)c1)NO` [Compound 75, (S)-2-{3-[3-(7-Hydroxycarbamoyl-heptanoylamino)-phenoxy]-propylamino}-3-phenyl-propionic acid cyclopentyl ester], the negative logarithm of the IC50 (pIC50) in assay [1] is above 7.00; in the assay on Hela cancer cell line it was 5.48 to 6.48; in the assay on U937 cancer cell line it was above 6.48; with HUT cancer cell line it was above 6.48.
`O=C(CCCCCCC(=O)Nc1cccc(OCCCN[C@H](C(=O)OC2CCCC2)c2ccccc2)c1)NO` [Compound 77, (S)-{3-[3-(7-Hydroxycarbamoyl-heptanoylamino)-phenoxy]-propylamino}-phenyl-acetic acid cyclopentyl ester]: the pIC50 was above 7.00 in assay [1], 5.48 to 6.48 in the assay with Hela cancer cell line, above 6.48 in the assay on U937 cancer cell line and above 6.48 with HUT cancer cell line.
Regarding `O=C(CCCCCCC(=O)Nc1cccc(CNC(=O)N[C@@H](Cc2ccccc2)C(=O)OC2CCCC2)c1)NO` [Compound 81, (S)-2-{3-[3-(7-Hydroxycarbamoyl-heptanoylamino)-benzyl]-ureido}-3-phenyl-propionic acid cyclopentyl ester], the negative-log IC50 (pIC50) was above 7.00 in assay [1], below 5.48 with Hela cancer cell line, below 5.48 in the assay on U937 cancer cell line and 5.48 to 6.48 with HUT cancer cell line.
On to `O=C(CCCCCCC(=O)Nc1ccc(CN[C@@H](C(=O)OC2CCCC2)c2ccccc2)cc1)NO` [Compound 83, (R)-[4-(7-Hydroxycarbamoyl-heptanoylamino)-benzylamino]-phenyl-acetic acid cyclopentyl ester], for which the negative logarithm of the IC50 (pIC50) was 6.00 to 7.00 in assay [1], 5.48 to 6.48 with Hela cancer cell line, 5.48 to 6.48 in the assay with U937 cancer cell line and 5.48 to 6.48 in the assay on HUT cancer cell line.
Regarding `CC(C)C[C@H](NCc1ccc(NC(=O)CCCCCCC(=O)NO)cc1)C(=O)OC1CCCC1` [Compound 85, (S)-2-[4-(7-Hydroxycarbamoyl-heptanoylamino)-benzylamino]-4-methyl-pentanoic acid cyclopentyl ester], the negative logarithm of the IC50 (pIC50) is 6.00 to 7.00 in assay [1], below 5.48 with Hela cancer cell line, above 6.48 with U937 cancer cell line and 5.48 to 6.48 with HUT cancer cell line.
In the same order, the values of `O=C(CCCCCCC(=O)Nc1ccc(CN[C@H](C(=O)OC2CCCC2)C2CCCCC2)cc1)NO` [Compound 86, (S)-Cyclohexyl-[4-(7-hydroxycarbamoyl-heptanoylamino)-benzylamino]-acetic acid cyclopentyl ester] are 6.00 to 7.00, below 5.48, above 6.48 and 5.48 to 6.48.
In the same order, the values of `CC(OC(C)(C)C)[C@H](NCc1ccc(NC(=O)CCCCCCC(=O)NO)cc1)C(=O)OC1CCCC1` (stereo partly drawn) [Compound 88, (S)-3-tert-Butoxy-2-[4-(7-hydroxycarbamoyl-heptanoylamino)-benzylamino]-butyric acid cyclopentyl ester] are 6.00 to 7.00, 5.48 to 6.48, above 6.48 and 5.48 to 6.48.
The like results for `CC(C)(C)OC[C@H](NCc1ccc(NC(=O)CCCCCCC(=O)NO)cc1)C(=O)OC1CCCC1` [Compound 89, (S)-3-tert-Butoxy-2-[4-(7-hydroxycarbamoyl-heptanoylamino)-benzylamino]-propionic acid cyclopentyl ester] were, in that order, 6.00 to 7.00, below 5.48, above 6.48 and 5.48 to 6.48.
Turning to `O=C(CCCCCCC(=O)Nc1ccc(CN[C@@H](Cc2ccccc2)C(=O)OC2CCCC2)cc1)NO` [Compound 91, (S)-2-[4-(7-Hydroxycarbamoyl-heptanoylamino)-benzylamino]-3-phenyl-propionic acid cyclopentyl ester], the pIC50 is 6.00 to 7.00 in assay [1], below 5.48 in the assay with Hela cancer cell line, 5.48 to 6.48 in the assay on U937 cancer cell line and 5.48 to 6.48 in the assay with HUT cancer cell line.
In the case of `O=C(CCCCCCC(=O)Nc1cccc(OCCCC(=O)N[C@H](C(=O)OC2CCCC2)c2ccccc2)c1)NO` [Compound 92, (S)-{4-[3-(7-Hydroxycarbamoyl-heptanoylamino)-phenoxy]-butyrylamino}-phenyl-acetic acid cyclopentyl ester], the pIC50 in assay [1] was above 7.00; in the assay with Hela cancer cell line, 5.48 to 6.48; in the assay with U937 cancer cell line it was 5.48 to 6.48; in the assay on HUT cancer cell line, 5.48 to 6.48.
As to `CC(C)C[C@H](NC(=O)[C@@H]1Cc2ccc(NC(=O)CCCCCCC(=O)NO)cc2CN1)C(=O)OC1CCCC1` [Compound 96, (S)-2-{[(S)-7-(7-Hydroxycarbamoyl-heptanoylamino)-1,2,3,4-tetrahydro-isoquinoline-3-carbonyl]-amino}-4-methyl-pentanoic acid cyclopentyl ester], the negative-log IC50 (pIC50) in assay [1] was 6.00 to 7.00; in the assay with Hela cancer cell line, below 5.48; in the assay with U937 cancer cell line it was 5.48 to 6.48; in the assay on HUT cancer cell line, 5.48 to 6.48.
`CC(C)C[C@H](NC(=O)c1ccc(NC(=O)CCCCCCC(=O)NO)cc1)C(=O)OC1CCCC1` [Compound 98, (S)-2-[4-(7-Hydroxycarbamoyl-heptanoylamino)-benzoylamino]-4-methyl-pentanoic acid cyclopentyl ester]: the pIC50 in assay [1] was 6.00 to 7.00; in the assay with Hela cancer cell line it was 5.48 to 6.48; with U937 cancer cell line, 5.48 to 6.48; in the assay with HUT cancer cell line, 5.48 to 6.48.
As to `O=C(CCCCCCNC(=O)c1cc2cc(CCC(=O)N[C@@H](Cc3ccccc3)C(=O)OC3CCCC3)ccc2[nH]1)NO` [Compound 100, (S)-2-{3-[2-(6-Hydroxycarbamoyl-hexylcarbamoyl)-1H-indol-5-yl]-propionylamino}-3-phenyl-propionic acid cyclopentyl ester], the pIC50 in assay [1] was above 7.00; in the assay on Hela cancer cell line it was below 5.48; in the assay with U937 cancer cell line it was 5.48 to 6.48; in the assay with HUT cancer cell line it was 5.48 to 6.48.
Regarding `O=C(Cc1ccc(OCCCC(=O)N[C@@H](Cc2ccccc2)C(=O)OC2CCCC2)cc1)Nc1ccc2sc(C(=O)NO)cc2c1` [Compound 102, (S)-2-(4-{4-[(2-Hydroxycarbamoyl-benzo[b]thiophen-5-ylcarbamoyl)-methyl]-phenoxy}-butyrylamino)-3-phenyl-propionic acid cyclopentyl ester], the pIC50 in assay [1] is 6.00 to 7.00; in the assay with Hela cancer cell line, below 5.48; with U937 cancer cell line it was 5.48 to 6.48; in the assay on HUT cancer cell line, below 5.48.
`O=C(NO)c1cc2ccc(CNCc3ccc(CN[C@@H](Cc4ccccc4)C(=O)OC4CCCC4)cc3)cc2s1` [Compound 104, (S)-2-(4-{[(2-Hydroxycarbamoyl-benzo[b]thiophen-6-ylmethyl)-amino]-methyl}-benzylamino)-3-phenyl-propionic acid cyclopentyl ester]: the pIC50 in assay [1] is 6.00 to 7.00; in the assay on Hela cancer cell line it was 5.48 to 6.48; in the assay on U937 cancer cell line it was above 6.48; in the assay on HUT cancer cell line it was 5.48 to 6.48.
For `O=C(NO)c1cc2ccc(CNCc3ccc(CN[C@@H](Cc4ccc(O)cc4)C(=O)OC4CCCC4)cc3)cc2s1` [Compound 106, (S)-2-(4-{[(2-Hydroxycarbamoyl-benzo[b]thiophen-6-ylmethyl)-amino]-methyl}-benzylamino)-3-(4-hydroxy-phenyl)-propionic acid cyclopentyl ester], the pIC50 was above 7.00 in assay [1], 5.48 to 6.48 in the assay on Hela cancer cell line, above 6.48 in the assay with U937 cancer cell line and above 6.48 with HUT cancer cell line.
In the case of `CC(OC(C)(C)C)[C@H](NCc1ccc(CNCc2ccc3cc(C(=O)NO)sc3c2)cc1)C(=O)OC1CCCC1` (stereo partly drawn) [Compound 108, (S)-3-tert-Butoxy-2-(4-{[(2-hydroxycarbamoyl-benzo[b]thiophen-6-ylmethyl)-amino]-methyl}-benzylamino)-butyric acid cyclopentyl ester], the pIC50 in assay [1] is 6.00 to 7.00; in the assay with Hela cancer cell line, 5.48 to 6.48; in the assay with U937 cancer cell line, 5.48 to 6.48; with HUT cancer cell line, 5.48 to 6.48.
As to `CC(C)(C)OC[C@H](NCc1ccc(CNCc2ccc3cc(C(=O)NO)sc3c2)cc1)C(=O)OC1CCCC1` [Compound 109, (S)-3-tert-Butoxy-2-(4-{[(2-hydroxycarbarnoyl-benzo[b]thiophen-6-ylmethyl)-amino]-methyl}-benzylamino)-propionic acid cyclopentyl ester], the pIC50 in assay [1] was above 7.00; in the assay with Hela cancer cell line, 5.48 to 6.48; with U937 cancer cell line, above 6.48; with HUT cancer cell line, 5.48 to 6.48.
As to `CSCC[C@H](NCc1ccc(CNCc2ccc3cc(C(=O)NO)sc3c2)cc1)C(=O)OC1CCCC1` [Compound 110, (S)-2-(4-{[(2-Hydroxycarbamoyl-benzo[b]thiophen-6-ylmethyl)-amino]-methyl}-benzylamino)-4-methylsulfanyl-butyric acid cyclopentyl ester], the pIC50 was above 7.00 in assay [1], 5.48 to 6.48 in the assay on Hela cancer cell line, above 6.48 in the assay on U937 cancer cell line and above 6.48 in the assay with HUT cancer cell line.
For `O=C(NO)c1cc2ccc(CNCc3ccc(CN4CCC[C@H]4C(=O)OC4CCCC4)cc3)cc2s1` [Compound 111, (S)-1-(4-{[(2-Hydroxycarbamoyl-benzo[b]thiophen-6-ylmethyl)-amino]-methyl}-benzyl)-pyrrolidine-2-carboxylic acid cyclopentyl ester], the pIC50 is above 7.00 in assay [1], above 6.48 with Hela cancer cell line, above 6.48 in the assay with U937 cancer cell line and above 6.48 in the assay with HUT cancer cell line.
